Measurements published in patent US20020035125A1, “Therapeutic combination” (priority 2000, published 2002).

Details: 100% relative humidity over 48 hours

## CCOC(=O)N1c2ccc(C(F)(F)F)cc2[C@@H](N(Cc2cc(C(F)(F)F)cc(C(F)(F)F)c2)C(=O)OC)C[C@H]1CC [Example 9, Anhydrous (−)-(2R,4S)-4-[(3,5-Bis-trifluoromethyl-benzyl)-methoxycarbonyl-amino]-2-ethyl-6-trifluoromethyl-3,4-dihydro-2H-quinoline-1-carboxylic Acid Ethyl Ester]
  Hygroscopicity: Non-hygroscopic
